Laboratory results from ChEMBL document CHEMBL4390659, “Molecular hybridization approach for phenothiazine incorporated 1,2,3-triazole hybrids as promising antimicrobial agents: Design, synthesis, molecular docking and in silico ADME studies” (Eur J Med Chem, 2019).
≈ marks a conversion by molar mass, not a printed value.

Key:
[1] = Cytotoxicity against African green monkey Vero cells assessed as cell growth inhibition at 6.25 ug/ml incubated for 72 hrs by MTT assay relative to control; type: cell-based; conditions: chlorocebus sabaeus, read-out: GI
Escherichia coli = assay: Antibacterial activity against Escherichia coli incubated for 24 hrs by agar dilution method; type: functional
[2] = system: Mycobacterium tuberculosis; assay: Potency index, ratio of streptomycin MIC to test compound MIC against Mycobacterium tuberculosis H37Rv ATCC 27294; type: functional
[3] = Selectivity index, ratio of IC50 for African green monkey Vero cells to MIC for Mycobacterium tuberculosis H37Rv ATCC 27294; type: toxicity; conditions: read-out: Selectivity Index
Vero = assay: Cytotoxicity against African green monkey Vero cells assessed as reduction in cell viability incubated for 72 hrs by MTT assay; type: cell-based; conditions: Chlorocebus sabaeus
[4] = system: Mycobacterium tuberculosis; assay: Potency index, ratio of ciprofloxacin MIC to test compound MIC against Mycobacterium tuberculosis H37Rv ATCC 27294; type: functional
[5] = system: Mycobacterium tuberculosis; assay: Potency index, ratio of pyrazinamide MIC to test compound MIC against Mycobacterium tuberculosis H37Rv ATCC 27294; type: functional
Pseudomonas aeruginosa = assay: Antibacterial activity against Pseudomonas aeruginosa incubated for 24 hrs by agar dilution method; type: functional
Staphylococcus aureus = assay: Antibacterial activity against Staphylococcus aureus incubated for 24 hrs by agar dilution method; type: functional
[6] = system: Mycobacterium tuberculosis; assay: Antibacterial activity against Mycobacterium tuberculosis H37Rv ATCC 27294 assessed as reduction in mycobacterial growth incubated for 5 days by MABA method; type: functional; conditions: H37Rv ATCC 27294, 120 h
[7] = system: Mycobacterium tuberculosis; assay: Antibacterial activity against Mycobacterium tuberculosis H37Rv infected in Swiss albino mouse assessed as log reduction in bacterial burden in lungs at 26 mg/kg, po administered via gavage starting from 6 weeks post infection measured after 3 to 4 weeks co-treated with rifampicin; type: functional
[8] = system: Mycobacterium tuberculosis; assay: Antibacterial activity against Mycobacterium tuberculosis H37Rv infected in Swiss albino mouse assessed as log reduction in bacterial burden in spleen at 26 mg/kg, po administered via gavage starting from 6 weeks post infection measured after 3 to 4 weeks co-treated with rifampicin; type: functional
[9] = system: Mycobacterium tuberculosis; assay: Antibacterial activity against Mycobacterium tuberculosis H37Rv infected in Swiss albino mouse assessed as log reduction in bacterial burden in spleen at 26 mg/kg, po administered via gavage starting from 6 weeks post infection measured after 3 to 4 weeks co-treated with isoniazid; type: functional
[10] = system: Mycobacterium tuberculosis; assay: Antibacterial activity against Mycobacterium tuberculosis H37Rv infected in Swiss albino mouse assessed as log reduction in bacterial burden in lungs at 26 mg/kg, po administered via gavage starting from 6 weeks post infection measured after 3 to 4 weeks co-treated with isoniazid; type: functional

Compound | inhibition at 72 h, 6.25 ug/ml [1] | MIC (Escherichia coli) | Ratio [2] | selectivity ratio [3] | IC50 (Vero) | Ratio [4] | Ratio [5] | MIC (Pseudomonas aeruginosa) | MIC (Staphylococcus aureus) | MIC [6] | Activity [7] | Activity [8] | Activity [9] | Activity [10]
Cc1ccc(C(=O)N/N=C/c2ccc3c(c2)Sc2ccc(C(F)(F)F)cc2N3Cc2cn(Cc3ccc(C#N)cc3)nn2)cc1 | 6.28% | 50 µg/mL (≈ 80.2 µM) | 4 | 250 | 1570 µg/mL (≈ 2510 µM) | 4 | 2 | 50 µg/mL (≈ 80.2 µM) | 25 µg/mL (≈ 40.1 µM) | 2.56 µM |  |  |  | 
N#Cc1ccc(Cn2cc(CN3c4ccccc4Sc4ccccc43)nn2)cc1 | 11.1% | 12.5 µg/mL (≈ 31.6 µM) | 4 | 119 | 1320 µg/mL (≈ 3340 µM) | 4 | 2 | 12.5 µg/mL (≈ 31.6 µM) | 6.25 µg/mL (≈ 15.8 µM) | 1.6 µg/mL |  |  |  | 
Fc1ccccc1Cn1cc(CN2c3ccccc3Sc3ccccc32)nn1 | 3.33% | 12.5 µg/mL (≈ 32.2 µM) | 4 | 278 | 924 µg/mL (≈ 2380 µM) | 4 | 2 | 25 µg/mL (≈ 64.4 µM) | 12.5 µg/mL (≈ 32.2 µM) | 1.6 µg/mL |  |  |  | 
COc1ccc(Cn2cc(CN3c4ccccc4Sc4ccccc43)nn2)cc1 | 7.57% | 25 µg/mL (≈ 62.4 µM) | 4 | 797 | 6040 µg/mL (≈ 15100 µM) | 4 | 2 | 50 µg/mL (≈ 125 µM) | 25 µg/mL (≈ 62.4 µM) | 1.6 µg/mL |  |  |  | 
N#Cc1ccc(Cn2cc(CN3c4ccc(/C=N/NC(=O)c5ccc([N+](=O)[O-])cc5)cc4Sc4ccc(C(F)(F)F)cc43)nn2)cc1 | 8.91% | 50 µg/mL (≈ 76.4 µM) | 4 | 126 | 1130 µg/mL (≈ 1720 µM) | 4 | 2 | 50 µg/mL (≈ 76.4 µM) | 25 µg/mL (≈ 38.2 µM) | 2.44 µM |  |  |  | 
CSc1ccc2c(c1)N(CCC1CCCCN1C)c1ccccc1S2 (centres undefined) [THIORIDAZINE] |  |  |  |  |  |  |  |  |  |  | >1 log10CFU | >1 log10CFU | >1 log10CFU | >1 log10CFU
N#Cc1ccc(Cn2cc(CN3c4ccccc4Sc4cc(/C=N/NC(=O)c5cccnc5)ccc43)nn2)cc1 | 8.42% | 25 µg/mL (≈ 46.1 µM) | 4 | 192 | 1610 µg/mL (≈ 2970 µM) | 4 |  | 50 µg/mL (≈ 92.1 µM) | 12.5 µg/mL (≈ 23 µM) | 2.94 µM |  |  |  | 
N#Cc1ccc(Cn2cc(CN3c4ccccc4Sc4cc(/C=N/NC(=O)c5ccccc5)ccc43)nn2)cc1 | 13.4% | 25 µg/mL (≈ 46.2 µM) | 4 | 32.3 | 434 µg/mL (≈ 802 µM) | 4 | 2 | 25 µg/mL (≈ 46.2 µM) | 12.5 µg/mL (≈ 23.1 µM) | 2.95 µM |  |  |  | 
N#Cc1ccc(Cn2cc(CN3c4ccccc4Sc4cc(/C=N/NC(=O)c5ccncc5)ccc43)nn2)cc1 | 5.13% | 25 µg/mL (≈ 46.1 µM) | 4 | 253 | 1300 µg/mL (≈ 2390 µM) | 4 | 2 | 25 µg/mL (≈ 46.1 µM) | 12.5 µg/mL (≈ 23 µM) | 2.94 µM |  |  |  | 
N#Cc1ccc(Cn2cc(CN3c4ccccc4Sc4cc(/C=N/NC(=O)c5ccc(F)cc5)ccc43)nn2)cc1 | 11.4% | 12.5 µg/mL (≈ 22.3 µM) | 4 | 66.3 | 758 µg/mL (≈ 1350 µM) | 4 | 2 | 12.5 µg/mL (≈ 22.3 µM) | 6.25 µg/mL (≈ 11.2 µM) | 2.85 µM |  |  |  | 
N#Cc1ccc(Cn2cc(CN3c4ccc(/C=N/NC(=O)c5cnccn5)cc4Sc4ccc(C(F)(F)F)cc43)nn2)cc1 | 11.6% | 50 µg/mL (≈ 81.8 µM) | 4 | 183 | 2110 µg/mL (≈ 3450 µM) | 4 | 2 | 100 µg/mL (≈ 164 µM) | 50 µg/mL (≈ 81.8 µM) | 2.61 µM |  |  |  | 
O=[N+]([O-])c1ccc(Cn2cc(CN3c4ccccc4Sc4ccccc43)nn2)cc1 | 11.4% | 50 µg/mL (≈ 120 µM) | 4 | 42.5 | 484 µg/mL (≈ 1160 µM) | 4 | 2 | 100 µg/mL (≈ 241 µM) | 50 µg/mL (≈ 120 µM) | 1.6 µg/mL |  |  |  | 
N#Cc1ccc(Cn2cc(CN3c4ccccc4Sc4cc(/C=N/NC(=O)c5ccc([N+](=O)[O-])cc5)ccc43)nn2)cc1 | 7.57% | 50 µg/mL (≈ 85.2 µM) | 4 | 91.5 | 693 µg/mL (≈ 1180 µM) | 4 | 2 | 50 µg/mL (≈ 85.2 µM) | 25 µg/mL (≈ 42.6 µM) | 2.72 µM |  |  |  | 
N#Cc1ccc(Cn2cc(CN3c4ccccc4Sc4cc(/C=N/NC(=O)c5cnccn5)ccc43)nn2)cc1 | 12.3% | 50 µg/mL (≈ 92 µM) | 4 | 195 | 2400 µg/mL (≈ 4420 µM) | 4 | 2 | 100 µg/mL (≈ 184 µM) | 50 µg/mL (≈ 92 µM) | 2.94 µM |  |  |  | 
N#Cc1ccc(Cn2cc(CN3c4ccc(/C=N/NC(=O)c5ccncc5)cc4Sc4ccc(C(F)(F)F)cc43)nn2)cc1 | 7.14% | 50 µg/mL (≈ 81.9 µM) | 4 | 207 | 1480 µg/mL (≈ 2420 µM) | 4 | 2 | 100 µg/mL (≈ 164 µM) | 50 µg/mL (≈ 81.9 µM) | 2.62 µM |  |  |  | 
N#Cc1ccc(Cn2cc(CN3c4ccccc4Sc4ccc(C(F)(F)F)cc43)nn2)cc1 | 5% |  | 4 | 417 | 2080 µg/mL (≈ 4500 µM) | 4 | 2 |  |  | 1.6 µg/mL |  |  |  | 
N#Cc1ccc(Cn2cc(CN3c4ccc(/C=N/NC(=O)c5ccccc5)cc4Sc4ccc(C(F)(F)F)cc43)nn2)cc1 | 12.3% | 50 µg/mL (≈ 82 µM) | 4 | 44.7 | 552 µg/mL (≈ 905 µM) | 4 |  | 50 µg/mL (≈ 82 µM) | 50 µg/mL (≈ 82 µM) | 2.62 µM |  |  |  | 
N#Cc1ccc(Cn2cc(CN3c4ccc(/C=N/NC(=O)c5ccc(F)cc5)cc4Sc4ccc(C(F)(F)F)cc43)nn2)cc1 | 8.42% | 12.5 µg/mL (≈ 19.9 µM) | 4 | 76.8 | 647 µg/mL (≈ 1030 µM) | 4 | 2 | 12.5 µg/mL (≈ 19.9 µM) | 6.25 µg/mL (≈ 9.96 µM) | 2.55 µM |  |  |  | 
N#Cc1ccc(Cn2cc(CN3c4ccc(/C=N/NC(=O)c5cccnc5)cc4Sc4ccc(C(F)(F)F)cc43)nn2)cc1 | 7.32% | 100 µg/mL (≈ 164 µM) | 4 | 115 | 845 µg/mL (≈ 1380 µM) | 4 | 2 | 100 µg/mL (≈ 164 µM) | 50 µg/mL (≈ 81.9 µM) | 2.62 µM |  |  |  | 
